According to patent US8084457B2, “Pharmaceutically active 4,6-disubstituted aminopyrimidine derivatives as modulators of protein kinases” (Lead Discovery Center GmbH, priority 2003, dated 2011):

Key:
Type in all cases: biochemical
CDK4 = CDK4 (Homo sapiens, UniProt P11802); assay: CDK4 (activity range), Table 2; no method described
PDGFR = assay: General kinase assay, selectivity panel: PDGFR; settings: 10 μM of compound, in comparison to DMSO (0% inhibition)
Procedure: (§1) The inhibitory effect of compounds according to the present invention on the activity of protein kinases, depicted in Table 1, can be measured according to the following protocol:
(§2) Pipettinq Sequence: • 1) Add 10 μl 4 fold concentrated Substrate+4 fold concentrated ATP in 3 fold concentrated Reaction Buffer to each well of Assay Plate • 2) Add 10 μl 4 fold concentrated inhibitor in 4% DMSO in H2O to each well except to C− and C+ wells • 3) Add 10 μl 4% DMSO in H2O to C− and C+ wells • 4) Add 10 μl 500 mM EDTA in H2O to − wells • 5) Add 10 μl 50 μCi/ml Adenosine 5′-[γ-^33P]triphosphate in H2O to each well • 6) Add 10 μl 4 fold concentrated kinase in Reaction Buffer to each well • 7) Incubate 1 hr at room temperature • 8) Add 10 μl 50 mM EDTA in H2O to each well except to C− wells • 9) Prepare MAPH plates by adding 200 μl 0.75% H3PO4 to each well • 10) Exhaust 0.75% H3PO4 using Millipore vacuum station • 11) Add 60 μl 0.75% H3PO4 to each well of MAPH Filter Plate • 12) Transfer 30 μl sample per well from Assay Plate to corresponding well of MAPH Filter Plate • 13) Incubate 30 min at room temperature • 14) Wash each well of MAPH Filter Plates 3× with 200 μl 0.75% H3PO4 using Millipore vacuum station. • 15) Add 20 μl Scintillation Liquid to each well of MAPH Filter Plate • 16) Seal MAPH Filter Plate • 17) Store MAPH Filter Plate 30 min in darkness • 18) Quantify radioactivity
(§3) The activity of these protein kinases is depicted as % inhibition in the presence of 10 μM of compound in comparison to DMSO (0% inhibition).

c-Kit = c-Kit (Homo sapiens, UniProt P10721); assay: General kinase assay, selectivity panel: c-Kit; settings: 10 μM of compound, in comparison to DMSO (0% inhibition)
Procedure: as §1, §2, §3

CDK1 = CDK1 (Homo sapiens, UniProt P06493); assay: General kinase assay, selectivity panel: CDK1; settings: 10 μM of compound, in comparison to DMSO (0% inhibition)
Procedure: as §1, §2, §3

EGFR = EGFR (Homo sapiens, UniProt P00533); assay: General kinase assay, selectivity panel: EGFR; settings: 10 μM of compound, in comparison to DMSO (0% inhibition)
Procedure: as §1, §2, §3

p56 Lck = p56 Lck (Homo sapiens, UniProt P06239); assay: General kinase assay, selectivity panel: p56 Lck; settings: 10 μM of compound, in comparison to DMSO (0% inhibition)
Procedure: as §1, §2, §3

GSK-3β = GSK-3β (Homo sapiens, UniProt P49841); assay: General kinase assay, selectivity panel: GSK-3β; settings: 10 μM of compound, in comparison to DMSO (0% inhibition)
Procedure: as §1, §2, §3

Abl = Abl (Homo sapiens, UniProt P00519); assay: General kinase assay, selectivity panel: Abl; settings: 10 μM of compound, in comparison to DMSO (0% inhibition)
Procedure: as §1, §2, §3

Chain of GSK-3β (P49841 whole entry, species assumed): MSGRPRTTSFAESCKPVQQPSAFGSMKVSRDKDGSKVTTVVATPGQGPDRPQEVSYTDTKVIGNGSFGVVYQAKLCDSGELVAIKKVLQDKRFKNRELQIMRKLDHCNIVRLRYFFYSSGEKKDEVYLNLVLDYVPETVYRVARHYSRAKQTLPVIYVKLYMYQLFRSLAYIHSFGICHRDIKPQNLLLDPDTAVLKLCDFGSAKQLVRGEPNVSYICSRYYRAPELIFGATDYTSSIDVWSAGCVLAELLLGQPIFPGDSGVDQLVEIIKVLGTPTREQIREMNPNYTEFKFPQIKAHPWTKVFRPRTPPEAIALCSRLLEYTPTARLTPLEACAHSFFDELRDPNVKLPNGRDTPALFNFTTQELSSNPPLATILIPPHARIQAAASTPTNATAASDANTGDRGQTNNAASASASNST
Chain of p56 Lck (P06239 whole entry): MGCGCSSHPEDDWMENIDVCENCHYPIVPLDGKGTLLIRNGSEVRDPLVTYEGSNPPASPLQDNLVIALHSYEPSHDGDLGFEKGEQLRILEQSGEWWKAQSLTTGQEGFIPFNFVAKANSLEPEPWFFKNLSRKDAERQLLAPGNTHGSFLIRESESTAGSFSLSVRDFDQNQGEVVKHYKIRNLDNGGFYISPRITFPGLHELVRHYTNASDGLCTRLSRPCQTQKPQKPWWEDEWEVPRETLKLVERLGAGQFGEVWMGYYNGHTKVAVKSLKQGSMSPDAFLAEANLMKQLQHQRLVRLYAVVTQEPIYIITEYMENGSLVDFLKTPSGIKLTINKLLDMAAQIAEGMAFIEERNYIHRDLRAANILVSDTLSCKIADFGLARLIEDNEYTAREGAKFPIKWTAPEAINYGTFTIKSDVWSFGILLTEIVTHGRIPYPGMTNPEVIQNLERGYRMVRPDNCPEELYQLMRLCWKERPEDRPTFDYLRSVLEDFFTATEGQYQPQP
Chain of CDK1 (P06493 whole entry, species assumed): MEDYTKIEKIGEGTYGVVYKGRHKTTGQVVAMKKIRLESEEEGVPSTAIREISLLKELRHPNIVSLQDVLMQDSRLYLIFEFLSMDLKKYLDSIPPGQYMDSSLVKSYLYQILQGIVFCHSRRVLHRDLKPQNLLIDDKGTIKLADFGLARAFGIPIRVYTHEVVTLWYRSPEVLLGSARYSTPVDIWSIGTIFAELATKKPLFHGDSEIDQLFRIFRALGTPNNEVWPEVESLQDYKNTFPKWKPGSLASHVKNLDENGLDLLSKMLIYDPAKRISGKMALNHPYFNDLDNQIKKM
Chain of CDK1 (P14635 whole entry partner, species assumed): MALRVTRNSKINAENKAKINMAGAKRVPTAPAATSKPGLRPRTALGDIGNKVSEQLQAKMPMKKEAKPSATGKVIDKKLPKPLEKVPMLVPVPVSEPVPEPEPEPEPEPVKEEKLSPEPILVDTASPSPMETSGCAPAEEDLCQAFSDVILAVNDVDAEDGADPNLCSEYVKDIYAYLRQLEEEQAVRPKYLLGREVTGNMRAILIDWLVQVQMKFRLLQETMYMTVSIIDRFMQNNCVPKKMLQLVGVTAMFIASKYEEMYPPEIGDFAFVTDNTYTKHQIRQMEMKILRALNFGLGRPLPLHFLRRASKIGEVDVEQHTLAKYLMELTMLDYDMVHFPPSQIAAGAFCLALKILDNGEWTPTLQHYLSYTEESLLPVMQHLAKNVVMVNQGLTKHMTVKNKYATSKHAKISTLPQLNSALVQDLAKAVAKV
Chain of Abl (P00519 whole entry, species assumed): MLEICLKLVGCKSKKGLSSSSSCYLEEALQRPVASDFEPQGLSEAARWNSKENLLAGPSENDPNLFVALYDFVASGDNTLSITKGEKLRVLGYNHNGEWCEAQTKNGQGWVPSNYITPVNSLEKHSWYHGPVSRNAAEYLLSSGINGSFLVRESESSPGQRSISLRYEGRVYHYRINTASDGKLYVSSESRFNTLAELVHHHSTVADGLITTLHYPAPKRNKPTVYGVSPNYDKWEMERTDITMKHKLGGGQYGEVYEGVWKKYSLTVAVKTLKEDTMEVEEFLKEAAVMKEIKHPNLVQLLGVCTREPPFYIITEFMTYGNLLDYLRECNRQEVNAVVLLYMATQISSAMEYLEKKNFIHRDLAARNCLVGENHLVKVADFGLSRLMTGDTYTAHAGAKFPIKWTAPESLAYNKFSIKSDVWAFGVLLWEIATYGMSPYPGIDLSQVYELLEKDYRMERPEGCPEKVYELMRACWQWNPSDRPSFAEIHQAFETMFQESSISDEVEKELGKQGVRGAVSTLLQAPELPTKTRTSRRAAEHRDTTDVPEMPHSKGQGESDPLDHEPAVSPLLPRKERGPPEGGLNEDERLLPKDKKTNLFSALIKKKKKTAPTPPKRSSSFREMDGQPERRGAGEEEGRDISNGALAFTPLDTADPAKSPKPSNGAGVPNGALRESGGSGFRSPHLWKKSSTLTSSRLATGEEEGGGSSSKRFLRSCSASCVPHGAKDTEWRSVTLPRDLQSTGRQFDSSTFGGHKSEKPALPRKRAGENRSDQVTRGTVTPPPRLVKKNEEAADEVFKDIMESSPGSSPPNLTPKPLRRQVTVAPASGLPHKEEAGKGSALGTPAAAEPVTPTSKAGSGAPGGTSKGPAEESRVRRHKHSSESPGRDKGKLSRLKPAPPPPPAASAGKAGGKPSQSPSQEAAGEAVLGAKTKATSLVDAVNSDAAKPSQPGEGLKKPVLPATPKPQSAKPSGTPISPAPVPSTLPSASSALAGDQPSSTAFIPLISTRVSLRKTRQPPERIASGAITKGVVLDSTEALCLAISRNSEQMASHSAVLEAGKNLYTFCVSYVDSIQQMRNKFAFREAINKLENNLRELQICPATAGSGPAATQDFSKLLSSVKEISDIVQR
Chain of EGFR (P00533 25-1210, species assumed): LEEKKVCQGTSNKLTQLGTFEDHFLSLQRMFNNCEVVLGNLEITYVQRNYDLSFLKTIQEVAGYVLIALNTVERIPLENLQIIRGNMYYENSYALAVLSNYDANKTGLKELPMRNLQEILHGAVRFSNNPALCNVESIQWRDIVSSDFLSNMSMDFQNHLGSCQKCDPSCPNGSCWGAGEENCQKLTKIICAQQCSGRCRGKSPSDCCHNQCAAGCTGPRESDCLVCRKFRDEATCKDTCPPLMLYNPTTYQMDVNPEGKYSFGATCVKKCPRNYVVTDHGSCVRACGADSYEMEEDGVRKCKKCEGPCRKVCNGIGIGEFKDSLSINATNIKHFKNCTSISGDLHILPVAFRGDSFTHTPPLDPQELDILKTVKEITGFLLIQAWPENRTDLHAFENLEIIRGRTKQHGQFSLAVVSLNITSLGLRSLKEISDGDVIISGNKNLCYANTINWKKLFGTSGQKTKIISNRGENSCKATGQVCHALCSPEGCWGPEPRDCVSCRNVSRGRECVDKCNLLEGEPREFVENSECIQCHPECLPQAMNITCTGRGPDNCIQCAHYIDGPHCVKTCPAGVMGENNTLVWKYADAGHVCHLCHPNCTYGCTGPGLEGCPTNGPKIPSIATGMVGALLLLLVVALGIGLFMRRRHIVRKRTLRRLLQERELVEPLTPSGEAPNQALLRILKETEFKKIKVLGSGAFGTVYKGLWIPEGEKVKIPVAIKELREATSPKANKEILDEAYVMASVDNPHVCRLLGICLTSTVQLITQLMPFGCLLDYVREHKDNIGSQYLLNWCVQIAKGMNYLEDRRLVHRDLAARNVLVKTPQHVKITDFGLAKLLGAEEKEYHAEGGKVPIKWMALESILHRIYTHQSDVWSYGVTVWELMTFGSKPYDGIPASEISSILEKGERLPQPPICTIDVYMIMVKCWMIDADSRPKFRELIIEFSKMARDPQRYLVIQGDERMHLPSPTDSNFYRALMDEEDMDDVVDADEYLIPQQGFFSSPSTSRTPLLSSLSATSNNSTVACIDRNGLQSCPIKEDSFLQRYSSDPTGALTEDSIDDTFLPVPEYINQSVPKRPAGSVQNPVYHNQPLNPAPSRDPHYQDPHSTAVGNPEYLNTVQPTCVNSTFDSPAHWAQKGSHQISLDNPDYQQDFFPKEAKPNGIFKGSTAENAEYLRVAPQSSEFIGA
Chain of c-Kit (P10721 26-976): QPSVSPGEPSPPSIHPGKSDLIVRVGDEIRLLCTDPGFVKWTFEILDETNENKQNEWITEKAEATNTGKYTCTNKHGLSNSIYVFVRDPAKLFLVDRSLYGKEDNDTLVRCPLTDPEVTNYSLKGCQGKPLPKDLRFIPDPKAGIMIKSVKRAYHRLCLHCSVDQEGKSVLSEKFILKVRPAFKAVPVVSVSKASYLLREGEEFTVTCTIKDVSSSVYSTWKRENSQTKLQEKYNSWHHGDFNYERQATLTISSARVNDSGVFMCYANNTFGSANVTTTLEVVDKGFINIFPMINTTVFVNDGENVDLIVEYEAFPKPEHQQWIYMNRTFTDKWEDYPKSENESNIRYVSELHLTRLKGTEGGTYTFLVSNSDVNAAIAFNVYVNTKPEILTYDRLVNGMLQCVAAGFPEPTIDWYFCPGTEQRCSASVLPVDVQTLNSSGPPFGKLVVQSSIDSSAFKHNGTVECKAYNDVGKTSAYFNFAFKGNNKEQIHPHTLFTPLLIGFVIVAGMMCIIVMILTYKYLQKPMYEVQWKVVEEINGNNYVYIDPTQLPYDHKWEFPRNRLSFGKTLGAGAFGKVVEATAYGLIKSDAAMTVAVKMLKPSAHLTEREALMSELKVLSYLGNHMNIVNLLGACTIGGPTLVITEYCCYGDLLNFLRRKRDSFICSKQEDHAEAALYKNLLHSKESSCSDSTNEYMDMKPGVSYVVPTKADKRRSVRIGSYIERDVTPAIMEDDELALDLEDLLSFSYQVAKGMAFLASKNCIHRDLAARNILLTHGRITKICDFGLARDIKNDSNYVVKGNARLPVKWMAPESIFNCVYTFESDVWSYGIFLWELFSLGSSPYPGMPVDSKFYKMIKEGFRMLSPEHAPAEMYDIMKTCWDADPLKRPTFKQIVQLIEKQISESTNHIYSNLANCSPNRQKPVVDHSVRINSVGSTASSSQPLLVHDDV

| SMILES | IC50 (CDK4) | PDGFR (% inhibition) (PDGFR) | c-Kit (% inhibition) (c-Kit) | CDK1 (% inhibition) (CDK1) | EGFR (% inhibition) (EGFR) | p56 Lck (% inhibition) (p56 Lck) | GSK-3β (% inhibition) (GSK-3β) | Abl (% inhibition) (Abl) |
| --- | --- | --- | --- | --- | --- | --- | --- | --- |
| COc1ccccc1-c1cc(Nc2ccc(N3CCOCC3)cc2)ncn1 [Compound 280] | 1 to 10 µM | – | – | – | – | – | – | – |
| CCN(CC)CCC(=O)Nc1ccc(Nc2cc(-c3ccccc3OC)ncn2)cc1 [Compound 64] | – | b (inhibition between 80 and 50%: b) | b (inhibition between 80 and 50%: b) | a (inhibition greater than 80%: a) | a (inhibition greater than 80%: a) | b (inhibition between 80 and 50%: b) | c (inhibition between 50 and 30%: c) | b (inhibition between 80 and 50%: b) |
| COc1ccccc1-c1cc(Nc2ccc(NC(=O)c3ccc(N4CCN(C)CC4)cc3)cc2)ncn1 [Compound 49] | – | c (inhibition between 50 and 30%: c) | b (inhibition between 80 and 50%: b) | a (inhibition greater than 80%: a) | b (inhibition between 80 and 50%: b) | b (inhibition between 80 and 50%: b) | b (inhibition between 80 and 50%: b) | b (inhibition between 80 and 50%: b) |
| CCN(CC)CCNC(=O)c1ccc(Nc2cc(-c3ccccc3OC)ncn2)cc1 [Compound 217] | 1 to 10 µM | – | – | – | – | – | – | – |
| COc1ncccc1-c1cc(Nc2ccc(C(=O)N[C@@H]3CCCC[C@H]3N)cc2)ncn1 [Compound 219] | 10 to 250 µM | – | – | – | – | – | – | – |
| CNS(=O)(=O)c1ccc(Nc2cc(-c3ccccc3OC)ncn2)cc1 [Compound 341] | 1 to 10 µM | – | – | – | – | – | – | – |
| COc1ccccc1-c1cc(Nc2ccc(CCO)cc2)ncn1 [Compound 351] | 1 to 10 µM | – | – | – | – | – | – | – |
| CCCS(=O)(=O)Nc1cc(Nc2cc(-c3cccc(N)c3)ncn2)ccc1C [Compound 116] | – | c (inhibition between 50 and 30%: c) | – | a (inhibition greater than 80%: a) | a (inhibition greater than 80%: a) | b (inhibition between 80 and 50%: b) | a (inhibition greater than 80%: a) | – |
| Cc1ccc(Nc2cc(-c3cccc(N)c3)ncn2)cc1NS(C)(=O)=O [Compound 12] | – | c (inhibition between 50 and 30%: c) | b (inhibition between 80 and 50%: b) | a (inhibition greater than 80%: a) | a (inhibition greater than 80%: a) | b (inhibition between 80 and 50%: b) | a (inhibition greater than 80%: a) | – |
| COc1ccccc1-c1cc(Nc2ccc(NC(=O)[C@H]3CCCCN3)cc2)ncn1 [Compound 69] | – | b (inhibition between 80 and 50%: b) | b (inhibition between 80 and 50%: b) | b (inhibition between 80 and 50%: b) | a (inhibition greater than 80%: a) | a (inhibition greater than 80%: a) | – | b (inhibition between 80 and 50%: b) |
| COc1ccccc1-c1cc(Nc2ccc(NC(=O)NC3CCCCC3)cc2)ncn1 [Compound 38] | – | b (inhibition between 80 and 50%: b) | b (inhibition between 80 and 50%: b) | b (inhibition between 80 and 50%: b) | c (inhibition between 50 and 30%: c) | b (inhibition between 80 and 50%: b) | c (inhibition between 50 and 30%: c) | – |
| COc1ccccc1-c1cc(Nc2ccc(NC(=O)c3ccc(N)cc3)cc2)ncn1 [Compound 8] | – | – | b (inhibition between 80 and 50%: b) | a (inhibition greater than 80%: a) | – | b (inhibition between 80 and 50%: b) | – | – |
| COc1ccccc1-c1cc(Nc2ccc(NC(=O)C3(N)CCCC3)cc2)ncn1 [Compound 68] | – | b (inhibition between 80 and 50%: b) | b (inhibition between 80 and 50%: b) | b (inhibition between 80 and 50%: b) | a (inhibition greater than 80%: a) | b (inhibition between 80 and 50%: b) | – | b (inhibition between 80 and 50%: b) |
| COc1ccccc1-c1cc(Nc2ccc(NC(=O)[C@H]3CCCN3)cc2)ncn1 [Compound 91] | – | b (inhibition between 80 and 50%: b) | – | b (inhibition between 80 and 50%: b) | a (inhibition greater than 80%: a) | b (inhibition between 80 and 50%: b) | c (inhibition between 50 and 30%: c) | b (inhibition between 80 and 50%: b) |
| COc1ccccc1-c1cc(Nc2cccc(S(N)(=O)=O)c2)ncn1 [Compound 331] | 10 to 250 µM | – | – | – | – | – | – | – |
| COc1ccccc1-c1cc(Nc2ccc(NC(=O)CC3CCCCN3)cc2)ncn1 (centres unmarked) [Compound 59] | – | b (inhibition between 80 and 50%: b) | b (inhibition between 80 and 50%: b) | a (inhibition greater than 80%: a) | a (inhibition greater than 80%: a) | b (inhibition between 80 and 50%: b) | – | b (inhibition between 80 and 50%: b) |
| COc1ccccc1-c1cc(Nc2ccc3cnn(C)c3c2)ncn1 [Compound 353] | 1 to 10 µM | – | – | – | – | – | – | – |
| CSc1ccncc1-c1cc(Nc2ccc(C(=O)N[C@@H]3CCCC[C@H]3N)cc2)ncn1 [Compound 224] | 1 to 10 µM | – | – | – | – | – | – | – |
| COc1cccc(F)c1-c1cc(Nc2cccc(S(C)(=O)=O)c2)ncn1 [Compound 346] | 1 to 10 µM | – | – | – | – | – | – | – |
| COc1ccccc1-c1cc(Nc2ccc(C(=O)NC3CCCNC3)cc2)ncn1 (centres unmarked) [Compound 86] | – | b (inhibition between 80 and 50%: b) | – | a (inhibition greater than 80%: a) | a (inhibition greater than 80%: a) | b (inhibition between 80 and 50%: b) | b (inhibition between 80 and 50%: b) | c (inhibition between 50 and 30%: c) |
| COc1ccccc1-c1cc(Nc2ccc(NC(=O)C3(N)CCCCC3)cc2)ncn1 [Compound 66] | – | b (inhibition between 80 and 50%: b) | b (inhibition between 80 and 50%: b) | b (inhibition between 80 and 50%: b) | a (inhibition greater than 80%: a) | b (inhibition between 80 and 50%: b) | – | b (inhibition between 80 and 50%: b) |
| COc1ccccc1-c1cc(Nc2ccc(NC(C)=O)cc2)ncn1 [Compound 10] | – | c (inhibition between 50 and 30%: c) | b (inhibition between 80 and 50%: b) | a (inhibition greater than 80%: a) | b (inhibition between 80 and 50%: b) | b (inhibition between 80 and 50%: b) | b (inhibition between 80 and 50%: b) | – |
| O=C(O)Cc1ccc(Nc2cc(-c3ccccc3OCc3ccccc3)ncn2)cc1 [Compound 294] | 1 to 10 µM | – | – | – | – | – | – | – |
| COc1ccccc1-c1cc(Nc2ccc(NC(=O)Cc3ccccc3)cc2)ncn1 [Compound 71] | – | b (inhibition between 80 and 50%: b) | b (inhibition between 80 and 50%: b) | a (inhibition greater than 80%: a) | c (inhibition between 50 and 30%: c) | b (inhibition between 80 and 50%: b) | c (inhibition between 50 and 30%: c) | – |
| COc1ccccc1-c1cc(Nc2ccc(N)cc2)ncn1 [Compound 22] | – | c (inhibition between 50 and 30%: c) | b (inhibition between 80 and 50%: b) | a (inhibition greater than 80%: a) | a (inhibition greater than 80%: a) | b (inhibition between 80 and 50%: b) | c (inhibition between 50 and 30%: c) | – |
| COc1ccccc1-c1cc(Nc2ccc(NC(=O)[C@H]3Cc4ccccc4CN3)cc2)ncn1 [Compound 65] | – | b (inhibition between 80 and 50%: b) | b (inhibition between 80 and 50%: b) | b (inhibition between 80 and 50%: b) | a (inhibition greater than 80%: a) | b (inhibition between 80 and 50%: b) | – | b (inhibition between 80 and 50%: b) |
